Test results as given in patent publication US10399949B2, “NK1 receptor antagonist” (KISSEI PHARMACEUTICAL CO., LTD., priority 2015, dated 2019).

Tests used:
[1] = biological target: T1, human NK1 receptor (Homo sapiens, UniProt P25103); assay: Inhibitory effect on human NK1 receptor (substance P-induced increase in intracellular calcium concentration); type: cell-based; conditions: HEK-293T; substance P 0.1 μM; compound 1 μM; human NK1 receptor-expressing 293T cells; vehicle = 100%; read-out: SPRR (%) (Substance P-Response Remaining, intracellular calcium concentration)
T1 construct: expressed in transfected cells; host or cells: 293T cells (RIKEN), transient transfection with pcDNA3.1(-) plasmid
Method: Inhibitory Effect on Human NK1 Receptor
(1) Preparation of Human NK1 Receptor-Expressing Cells
Human NK1 receptor-expressing cells were prepared by the same methods as those described in 2-3 and 2-4 of Test Example 1.
(2) Study on Inhibitory Effect on Increase in Intracellular Calcium Concentration
The human NK1 receptor-expressing cells were washed with 300 μL/well of a washing solution (20 mM HEPES/Hanks Balanced Salt Solution (HBSS) pH7.3). A fluorescent calcium indicator (Fluo-4 Direct Calcium Assay Kit, Life Technologies, containing 0.42 mM probenecid and 0.1% bovine serum albumin, prepared according to the protocol of the product) was added to the wells at 150 μL/well, and the plate was incubated at 37° C. for 30 minutes in an incubator. Then, DMSO solutions of a test compound, which were prepared at an 80-time higher concentration using 100% dimethyl sulfoxide (DMSO), were added to the wells at 2.5 μL/well (final concentrations of 0.1, 1 and 10 μM), and the solutions were mixed. Then, the plate was further incubated at 37° C. for 30 minutes in an incubator. After 30 minutes, the intracellular calcium concentrations were measured immediately.
The intracellular calcium concentrations were each measured as a fluorescent signal using FDSS® 7000 (Hamamatsu Photonics). A substance P (Peptide Institute, Inc.) solution which was prepared at 0.4 μM or 4 μM using an assay buffer (20 mM HEPES/Hanks Balanced Salt Solution (HBSS) pH 7.3 containing 0.1% bovine serum albumin) was added automatically to each well at 50 μL/well (final concentration of 0.1 or 1 μM) 10 seconds after starting reading, and the fluorescent signal was measured up to 120 seconds.
The intracellular calcium concentration (%) of the cells to which a test compound was added was calculated by the equation below, where the fluorescent signal of the group to which the vehicle (DMSO) was added was regarded as 100%, and the fluorescent signal before the addition of substance P was regarded as 0%. Intracellular calcium concentration (%)=(Fluorescent signal of test compound addition group)/(Fluorescent signal of vehicle addition group)×100
The intracellular calcium concentration (%) calculated was regarded as the remaining agonist activity of substance P (Substance P-Response Remaining: SPRR). In the table, Ex. No. means the Example number. SPRR (%) means the value obtained when the concentration of substance P was 0.1 μM and the concentration of the compound was 1 μM.

[2] = biological target: T2, human CYP3A4 (Homo sapiens, UniProt P08684); assay: Inhibitory effect on CYP3A4 (Luciferin-IPA); type: in vitro ADME; conditions: test compound 10 μM, 30-minutes pre-incubation, Luciferin-IPA 3 μM
T2 construct: purchased BD Biosciences
Method: Inhibitory Effect on CYP3A4
The dimethyl sulfoxide (DMSO) solution of the test compound with a concentration 1000 times higher than the evaluation concentration was prepared, and a reaction solution was prepared by diluting the solution. Enzyme reaction was performed by incubating in a potassium phosphate buffer solution (pH 7.4) containing 1 μM to 10 μM test compound, 3.2 mM magnesium chloride, 0.2 pmol human CYP3A4 (BD Biosciences), 0.5 mM reduced nicotinamide adenine dinucleotide phosphate (NADPH) and 3 μM Luciferin-IPA (Promega) at 37° C. for 10 minutes. The volume of the reaction solution was 50 μL/well. The 30-minutes pre-incubation group was incubated at 37° C. for 30 minutes before adding the substrate, the Luciferin-IPA solution (12.5 μL/well). At the end of the enzyme reaction, 50 μL/well of a Luciferin detection reagent (Promega) was added to the wells, and the plate was left at room temperature for 20 minutes. Then, the emission intensities were measured with Infinite M1000 (TECAN), and the enzyme activities (%) relative to the value of the group to which the test compound was not added. As a comparative example, aprepitant, which is an NK1 receptor antagonist, was tested in the same manner.
Test was measured by the above test method, and the results are shown in Table 9 when the concentration of the test compound was 10 μM. In the table, Ex. No. means the Example number, and Pre-incubation (30 min) (%) means the enzyme activities (%) of the 30-minutes pre-incubation groups using the test compounds.

[3] = Measurement of drug concentrations in the brain after foot-tapping test; type: in vivo; conditions: male gerbil; 0.3 mg/kg from the jugular vein; brain extracted after foot-tapping was finished; LC/MS
Method: A male gerbil (Japan SLC) was anesthetized with isoflurane, and 0.3 mg/kg of a test compound was administered from the jugular vein. After 4 hours, GR73632 (5 pmol/5 μL saline), which is an NK1 receptor agonist, was administered into the cerebral ventricle at the part 1 mm lateral to and 4.5 mm below the bregma in the head, under anesthesia with isoflurane. After the administration, the gerbil was moved to an observation cage, and the foot-tapping period during 30 minutes after the recovery of the righting reflex was measured. As a comparative example, aprepitant, which is an NK1 receptor antagonist, was tested in the same manner. The foot-tapping inhibition rate (%) of each test compound was calculated by the following equation. Foot-tapping inhibition rate (%)={1−(Foot-tapping period when test compound was administered)/(Foot-tapping period when solvent was administered)}×100 (2) Measurement of Drug Concentrations
After foot-tapping was finished, laparotomy was performed immediately under anesthesia with ether, and a blood sample was taken from the abdominal vena cava. At the same time, the brain was extracted. Through a quantitative analysis using liquid chromatography-mass spectrometry (LC/MS), the concentrations of the test compound in the plasma and the brain were measured.
In the table, Ex. No. means the Example number. […]

T1 sequence (P25103 whole entry): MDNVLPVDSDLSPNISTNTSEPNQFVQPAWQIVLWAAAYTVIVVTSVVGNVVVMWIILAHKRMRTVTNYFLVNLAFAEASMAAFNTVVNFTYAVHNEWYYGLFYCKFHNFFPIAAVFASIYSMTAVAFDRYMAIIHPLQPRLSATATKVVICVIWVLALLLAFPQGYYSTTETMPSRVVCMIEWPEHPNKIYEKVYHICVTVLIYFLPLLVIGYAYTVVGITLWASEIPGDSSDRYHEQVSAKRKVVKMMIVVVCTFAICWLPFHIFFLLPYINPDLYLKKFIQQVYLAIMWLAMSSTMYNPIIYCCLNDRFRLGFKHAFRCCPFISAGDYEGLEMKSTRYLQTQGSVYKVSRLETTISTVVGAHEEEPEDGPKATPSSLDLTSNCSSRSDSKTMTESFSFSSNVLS
T2 sequence (P08684 whole entry): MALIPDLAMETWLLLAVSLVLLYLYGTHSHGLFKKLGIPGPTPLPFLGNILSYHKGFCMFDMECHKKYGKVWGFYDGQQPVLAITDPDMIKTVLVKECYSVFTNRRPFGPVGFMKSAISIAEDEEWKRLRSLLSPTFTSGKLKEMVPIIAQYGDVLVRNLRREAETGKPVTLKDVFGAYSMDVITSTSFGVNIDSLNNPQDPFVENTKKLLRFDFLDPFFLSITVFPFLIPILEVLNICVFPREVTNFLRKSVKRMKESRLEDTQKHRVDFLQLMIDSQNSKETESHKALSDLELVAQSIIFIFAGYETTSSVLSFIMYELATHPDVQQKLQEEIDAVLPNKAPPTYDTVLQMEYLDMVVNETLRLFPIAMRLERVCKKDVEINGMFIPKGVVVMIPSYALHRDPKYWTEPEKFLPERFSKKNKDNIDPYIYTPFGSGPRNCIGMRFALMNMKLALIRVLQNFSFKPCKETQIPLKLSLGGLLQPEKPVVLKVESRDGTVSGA

remaining activity at 1 µM [1]	Preincubation (30 min) (%) (enzyme activities relative to group without test compound) [2]	Conc. (nM) (drug concentration in the brain) [3]	SMILES
8.9%	21%	181 nM	Cc1cc(F)ccc1[C@H]1CN(C[C@H]2CC[C@H](CC(=O)O)CC2)CCN1C(=O)N(C)[C@H](C)c1cc(C(F)(F)F)cc(C(F)(F)F)c1 [Example 5, trans-{4-[(S)-4-{[(R)-1-(3,5-Bistrifluoromethylphenyl)ethyl]methylcarbamoyl}-3-(4-fluoro-2-methylphenyl)piperazin-1-ylmethyl]cyclohexyl}acetic acid]
2.1%	18%	162 nM	Cc1cc(F)ccc1[C@H]1CN(C[C@H]2CC[C@@H](CC(=O)O)CC2)CCN1C(=O)N(C)[C@H](C)c1cc(C(F)(F)F)cc(C(F)(F)F)c1 [Example 4, cis-{4-[(S)-4-{[(R)-1-(3,5-Bistrifluoromethylphenyl)ethyl]methylcarbamoyl}-3-(4-fluoro-2-methylphenyl)piperazin-1-ylmethyl]cyclohexyl}acetic acid]
